Results: doi:10.64898/2025.12.09.693205v1 (biorxiv, 2025)

Target: T1, UBE2N (Homo sapiens, UniProt P61088)
T1 sequence (P61088 1-152): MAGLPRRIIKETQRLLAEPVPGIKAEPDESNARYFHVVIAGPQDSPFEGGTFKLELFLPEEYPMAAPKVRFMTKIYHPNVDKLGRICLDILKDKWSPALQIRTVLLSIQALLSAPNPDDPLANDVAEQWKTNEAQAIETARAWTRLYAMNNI
Assay: microscale thermophoresis
Format: binding
Details: PBS pH 7.4, 0.05% Tween20; labelled protein; MST-on time 9-10 s; n = 3

Kd: 35.3 ± 6.3 µM
SMILES: COC(=O)c1cc2c(cn1)[nH]c1ccc(O)cc12 [Variabine B]
